This is an account of results in ChEMBL document CHEMBL3271945, “Azabicyclo chemistry. 6. An investigation of one of the chemical parameters for analgetic activity. Synthesis of 2-methyl-2-azabicyclo[3.3.1]non-6-ene and -non-7-ene” (J Med Chem, 1977).

The structures appear in SMILES notation. Active and inactive are the calls of the source. The rule behind the calls is not given here.

Data set [1] concerns Mus musculus. In words: Analgetic activity in sc dosed mouse by hot-plate method. The data set is classed as functional. (In general: In hot-plate and tail-flick tests a longer latency is read as antinociception.)
Data set [2] deals with Mus musculus. In words: Toxicity in mouse at 100 mg/kg, sc. The data set is classed as organism-based. On the set-up: dose 100 mg/kg, route subcutaneous. Conditions: in vivo.
Data set [3] has as its system Mus musculus. In words: Analgetic activity in mouse at 50 mg/kg, sc by hot-plate method. The data set is classed as functional, organism-based. Also noted: dose 50 mg/kg.
The subject of data set [4] is Mus musculus. The experiment in a line: Analgetic activity in mouse at 100 mg/kg, sc by hot-plate method. The data set is classed as functional, organism-based. Also noted: dose 100 mg/kg.

In general, ED50 refers to the dose that gives a 50% effect, or the effect in half of the subjects. A high value points to weaker potency. For the compound `CN1CC[C@]23c4c5ccc(O)c4O[C@H]2[C@@H](O)C=C[C@H]3[C@H]1C5` [MORPHINE], in the data set with Mus musculus [1], the 50% effect level (ED50) was put at a dose of 1.2 mg/kg.
Turning to `CN1CC[C@@H]2C=CC[C@@H]1C2`, the Activity result with Mus musculus [2] is given as “Toxic”. In the data set with Mus musculus [3], the result was inactive.
In the case of `CN1CCC2CC1C[C@@H](O)C2` (stereo partly drawn), the result in the data set on Mus musculus [4] was inactive.
For `CN1CC[C@@]2(C)C[C@H]1Cc1ccccc12`, the 50% effect level in the data set on Mus musculus [1] (ED50) was put at a dose of 11 mg/kg.
In the case of `CN1CC[C@@H]2CC=C[C@@H]1C2`, the outcome in the data set on Mus musculus [4] was inactive.
Take `CN1CC[C@H]2C[C@H]1Cc1ccc(O)cc12`: the 50% effect level with Mus musculus [1] (ED50) was put at a dose of 4.5 mg/kg.
On the same count and under the same terms, to `CN1CCC2CC(=O)CC1C2` (stereo not drawn) belongs 40 mg/kg.
